Some test systems named below: COLO 205; NCI-H23; MOLT-4; SN12C; HOP-92; MCF7; PC-3; SW-620; SF-539; 786-0; MDA-MB-435; M14; K562; IGROV-1; SK-OV-3; RXF 393; HCC 2998; LOX IMVI; Hs-578T.
Common to all, as to assay: NCI-60 cell line screen, 48 h

Molecules are shown by their SMILES.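 Dose response: 5 concentrations. Exposure: 48 h. Format: 96-well plates. Endpoint: linear interpolation; highest concentration if not reached. At the GI50, growth is halved.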 The source made the active and inactive calls. No stated cut-off is given here; in the data, active = GI50 up to about 1.1 µM and inactive = higher. A value given as a limit tells only on which side of the number the result lay.

As for `COC1=C2C[C@@H](C)C[C@@H](OC)[C@@H](O)[C@H](C)/C=C(\C)[C@@H](OC(N)=O)[C@H](OC)/C=C\C=C(/C)C(=O)NC(=CC1=O)C2=O`, the GI50 with COLO 205 was 0.0116 µM (active); in the experiment with NCI-H23 it was 0.0309 µM (active); in the experiment on MOLT-4 it was 0.0199 µM (active); with SN12C, 0.0405 µM (active); in the experiment with HOP-92, 0.112 µM (active); in the experiment on MCF7, 0.0198 µM (active). Further, the GI50 in the experiment on PC-3 was 0.122 µM (active); in the experiment on SW-620 it was 0.0127 µM (active); in the experiment on SF-539, 0.132 µM (active); in the experiment on 786-0, 0.0762 µM (active); in the experiment on MDA-MB-435 it was 0.0309 µM (active); with M14 it was 0.106 µM (active). Further, the GI50 was 0.0115 µM (active) with K562, 0.29 µM (active) with IGROV-1, 1.04 µM (active) with SK-OV-3 and 0.0818 µM (active) with RXF 393.

`CC(C)(C)C(=O)ON1N=NC2C3CC(OCc4ccccc4)(OCc4ccccc4)C(O3)C21` (stereo unspecified): the GI50 in the experiment on COLO 205 is 18.7 µM (inactive); with NCI-H23, 19.6 µM (inactive); in the experiment on MOLT-4, 3.41 µM (inactive); in the experiment on SN12C it was 19.3 µM (inactive); in the experiment on HOP-92 it was 12 µM (inactive); in the experiment on SW-620, 14.9 µM (inactive). Moreover, the GI50 in the experiment on HCC 2998 was 14.2 µM (inactive); with SF-539 it was 16.3 µM (inactive); in the experiment on 786-0, 18.5 µM (inactive); in the experiment on M14 it was 26.4 µM (inactive); in the experiment on K562, 11.7 µM (inactive); with IGROV-1 it was 35.1 µM (inactive). Moreover, the values for the GI50 in the experiment with SK-OV-3, in the experiment with RXF 393 and in the experiment with LOX IMVI were 53.1 µM (inactive), 15.8 µM (inactive) and 15.4 µM (inactive), respectively.

Regarding `CCN(CC)C(=O)Cc1[nH][nH]c(=O)c1C(=O)N(CC)CC`, the GI50 in the experiment on COLO 205, in the experiment on NCI-H23, in the experiment with MOLT-4, with SN12C, in the experiment on HOP-92 and with SW-620 was > 100 µM (inactive) in each case. Besides, the GI50 with HCC 2998, in the experiment with SF-539, in the experiment with 786-0, in the experiment on M14, in the experiment with K562 and with IGROV-1 was > 100 µM (inactive) in each case. For the same compound, the GI50 in the experiment on SK-OV-3, with RXF 393 and with LOX IMVI was > 100 µM (inactive) in each case.

As for `Cc1nc(C(N)=S)sc1C(=O)CC(=O)C(=O)Nc1c(C(C)C)cccc1C(C)C`, the GI50 was 43.3 µM (inactive) with COLO 205; 30.1 µM (inactive) in the experiment on NCI-H23; 41 µM (inactive) with MOLT-4; 56.8 µM (inactive) in the experiment on SN12C; 26.9 µM (inactive) in the experiment with HOP-92; 48.9 µM (inactive) in the experiment on SW-620. In addition, the GI50 with HCC 2998 was 43.3 µM (inactive); in the experiment with SF-539, 44.4 µM (inactive); with 786-0, 50.4 µM (inactive); in the experiment with M14, 35.2 µM (inactive); in the experiment with K562, 24.3 µM (inactive); in the experiment with IGROV-1, 61.4 µM (inactive). For the same compound, the GI50 in the experiment with SK-OV-3 is 36 µM (inactive); in the experiment with RXF 393 it was 20.3 µM (inactive); in the experiment with LOX IMVI, 49.3 µM (inactive).

With `Cc1ccccc1NC(=O)Cc1csc(N/N=C2\C(=O)Nc3ccccc32)n1`, the GI50 with COLO 205 was > 100 µM (inactive); with NCI-H23, 38.4 µM (inactive); in the experiment on MOLT-4 it was 29.7 µM (inactive); in the experiment with SN12C, 61.2 µM (inactive); in the experiment with HOP-92, 30.2 µM (inactive); with Hs-578T, 25.8 µM (inactive). Further, the GI50 was 50 µM (inactive) in the experiment with MCF7; 18.6 µM (inactive) with PC-3; 1 µM (active) with SW-620; 17.9 µM (inactive) in the experiment on SF-539; 43 µM (inactive) in the experiment on 786-0; 1 µM (active) with MDA-MB-435. Moreover, the GI50 in the experiment on M14 is 50 µM (inactive); in the experiment on K562, 64.7 µM (inactive); in the experiment with IGROV-1, 33.9 µM (inactive); in the experiment with RXF 393, 28.8 µM (inactive); in the experiment on LOX IMVI, 64.1 µM (inactive).

For the compound `CN(C)CCNC(=O)c1cccc2nc3ccc4cccnc4c3nc12`, the GI50 in the experiment on COLO 205 is 0.232 µM (active); in the experiment on NCI-H23, 0.294 µM (active); with MOLT-4, 0.0441 µM (active); with SN12C it was 0.172 µM (active); in the experiment with HOP-92, 0.351 µM (active); in the experiment on SW-620 it was 0.0675 µM (active). Moreover, the GI50 in the experiment on HCC 2998 is 0.635 µM (active); with SF-539, 0.19 µM (active); in the experiment on 786-0, 0.454 µM (active); with M14, 0.631 µM (active); in the experiment with K562, 0.346 µM (active); in the experiment on IGROV-1, 0.359 µM (active). Moreover, the GI50 in the experiment on SK-OV-3 was 0.469 µM (active); in the experiment with RXF 393, 0.167 µM (active); in the experiment on LOX IMVI, 0.24 µM (active).

With `CN(C)CCNC(=O)c1cc([N+](=O)[O-])cc2ccc(-c3ccccc3)nc12`, the GI50 is 6.05 µM (inactive) with COLO 205; 7.67 µM (inactive) in the experiment with NCI-H23; 10.4 µM (inactive) in the experiment with SN12C; 10.5 µM (inactive) with HOP-92; 2.71 µM (inactive) in the experiment on MCF7; 5.22 µM (inactive) in the experiment with SW-620. The GI50 with HCC 2998 is 7.36 µM (inactive); in the experiment on SF-539, 7.66 µM (inactive); in the experiment with 786-0, 16.4 µM (inactive); in the experiment with M14 it was 33.7 µM (inactive); with K562, 17.1 µM (inactive); with IGROV-1, 6.92 µM (inactive). The GI50 with SK-OV-3 is 9.02 µM (inactive); in the experiment with RXF 393 it was 6.04 µM (inactive); in the experiment with LOX IMVI, 7.03 µM (inactive).

`Nc1ncnc2c1ncn2C1CC(OC2CCCCO2)C(CO)O1` (stereo unspecified): the GI50 in the experiment on COLO 205 was > 100 µM (inactive); in the experiment on NCI-H23, > 100 µM (inactive); in the experiment with MOLT-4 it was 61.8 µM (inactive); with SN12C, > 100 µM (inactive); in the experiment with HOP-92, > 100 µM (inactive); in the experiment on SW-620, > 100 µM (inactive). For the same compound, the GI50 in the experiment on HCC 2998, with SF-539, with 786-0, in the experiment on M14, in the experiment on K562 and in the experiment with IGROV-1 was > 100 µM (inactive) each time. The GI50 with SK-OV-3, in the experiment on RXF 393 and in the experiment on LOX IMVI was > 100 µM (inactive) each time.

On to `O=C1Nc2cc([N+](=O)[O-])c(Br)cc2C1=O`, for which the GI50 is 18.4 µM (inactive) in the experiment on COLO 205; 17.3 µM (inactive) in the experiment with NCI-H23; 10.4 µM (inactive) in the experiment with MOLT-4; 18.4 µM (inactive) in the experiment with SN12C; 24.5 µM (inactive) in the experiment with HOP-92; 19.3 µM (inactive) with SW-620. Also, the GI50 in the experiment on HCC 2998 is > 10 µM (inactive); in the experiment with SF-539, 22.4 µM (inactive); with 786-0 it was 18.5 µM (inactive); in the experiment on M14, 16.6 µM (inactive); in the experiment on K562, 18.1 µM (inactive); with IGROV-1, 17.5 µM (inactive). For the same compound, the GI50 in the experiment on SK-OV-3 was 17.5 µM (inactive); in the experiment with RXF 393 it was 24.7 µM (inactive); in the experiment on LOX IMVI, 18.5 µM (inactive).

As for `COC(=O)/C(=N/NC(N)=O)C(C(=O)OC)C(=O)C(=O)Nc1ccc(Cl)cc1` (stereo unspecified), the GI50 in the experiment on COLO 205, in the experiment on NCI-H23, in the experiment on MOLT-4, with SN12C, with HOP-92 and in the experiment on SW-620 was > 100 µM (inactive) each time. For the same compound, the GI50 was > 100 µM (inactive) in the experiment on HCC 2998; > 100 µM (inactive) in the experiment on SF-539; > 100 µM (inactive) in the experiment on 786-0; > 100 µM (inactive) in the experiment with M14; > 43.6 µM (inactive) in the experiment on K562; > 100 µM (inactive) in the experiment on IGROV-1. In addition, the GI50 with SK-OV-3 is > 100 µM (inactive); in the experiment on RXF 393, > 100 µM (inactive); in the experiment with LOX IMVI, > 83.2 µM (inactive).

`O=[N+]([O-])c1ccc2[nH]nc(OCc3ccccc3Cl)c2c1`: the GI50 is > 100 µM (inactive) with COLO 205; 31.9 µM (inactive) in the experiment with NCI-H23; 63.5 µM (inactive) in the experiment on MOLT-4; > 100 µM (inactive) with SN12C; 20.5 µM (inactive) in the experiment with HOP-92; 42.3 µM (inactive) in the experiment with Hs-578T. The GI50 in the experiment on PC-3 is > 100 µM (inactive); with SW-620, > 10 µM (inactive); in the experiment on HCC 2998, 59.6 µM (inactive); with SF-539, 22.4 µM (inactive); with 786-0 it was 25 µM (inactive); with MDA-MB-435 it was > 100 µM (inactive). Also, the GI50 was > 100 µM (inactive) with M14; > 100 µM (inactive) in the experiment with K562; 91.2 µM (inactive) with IGROV-1; 13.8 µM (inactive) in the experiment on SK-OV-3; 18.2 µM (inactive) in the experiment on RXF 393; 28.6 µM (inactive) in the experiment with LOX IMVI.

For the compound `CN[C@@H](C)[C@H](N)c1ccccc1`, the GI50 in the experiment on COLO 205, in the experiment on NCI-H23, in the experiment on MOLT-4, in the experiment with SN12C, in the experiment on HOP-92 and in the experiment with SW-620 was > 100 µM (inactive) in each case. Moreover, the GI50 in the experiment on HCC 2998, in the experiment with SF-539, with 786-0, with M14, in the experiment on K562 and in the experiment with IGROV-1 was > 100 µM (inactive) in each case. The GI50 with SK-OV-3, with RXF 393 and in the experiment with LOX IMVI was > 100 µM (inactive) in each case.

On to `CCCCCCCCCC(=O)OCC1OC(n2cc(F)c(=O)[nH]c2=O)C(N)C(OC(=O)CCCCCCCCC)C1O` (stereo unspecified), for which the GI50 is 17.5 µM (inactive) with COLO 205; 18.7 µM (inactive) in the experiment on NCI-H23; 14.1 µM (inactive) with MOLT-4; 16.9 µM (inactive) in the experiment with SN12C; 20.6 µM (inactive) in the experiment on HOP-92; 17.4 µM (inactive) with SW-620. Also, the GI50 is 15.5 µM (inactive) with HCC 2998; 18.4 µM (inactive) in the experiment with SF-539; 18.4 µM (inactive) with 786-0; 19.2 µM (inactive) in the experiment on M14; 16.7 µM (inactive) in the experiment on K562; > 100 µM (inactive) in the experiment with IGROV-1. The GI50 in the experiment on SK-OV-3 is 60 µM (inactive); in the experiment with RXF 393, 15.9 µM (inactive); with LOX IMVI it was 16.5 µM (inactive).

Values taken from ChEMBL document CHEMBL1201862, “PubChem BioAssay data set” (2004).
